Results taken from patent publication US9273054B2, “Substituted pyrimido[1,6-a]pyrimidines as Lp-PLA2 inhibitors” (Glaxo Group Limited, priority 2011, dated 2016).

Tests used:
[1] = tested on: EAE rats; experiment: Rat experimental autoimmune encephalomyelitis (EAE) model, preventive treatment; format: in vivo
Protocol: A further study was carried out to study the impact of Lp-PLA2 inhibitors on modulating M1/M2 imbalance. In this study, rats were induced to develop experimental autoimmune encephalomyelitis (EAE) by immunization with myelin basic protein (MBP) antigen and treated with a known Lp-PLA2 inhibitor: 5-((9-Methoxy-4-oxo-6,7-dihydro-4H-pyrimido[6,1-a]isoquinolin-2-yl)oxy)-2-(3-(trifluoromethyl)phenoxy)benzonitrile (See PCT application no. PCT/CN2011/001597). In this preventive treatment model, the compound was administered at day 0 (day of immunization) and continued to administer until day 22. The study lasted for 25 days. Rats were subsequently monitored for symptoms of EAE. Rats were immunized with MBP to develop EAE and symptoms were monitored daily. Plasma Lp-PLA2 activity, O×LDL, and LysoPC concentration were determined at different time points through the course of EAE.

[2] = tested on: proinflammatory (M1) and anti-inflammatory (M2) markers in macrophages; experiment: Ex vivo analysis of M1 and M2 markers in macrophages of EAE rats by realtime PCR; set-up: species or system rat; conditions: splenic macrophages day 13 post MBP-immunization and CNS infiltrating macrophages
Protocol: Ex vivo analysis of proinflammatory (M1) and anti-inflammatory (M2) markers in control and compound treated EAE rats. Splenic macrophages were harvested at day 13 post MBP-immunization and assayed for expression of a variety of markers by realtime PCR. CNS infiltrating cells were harvested and macrophages were analyzed for expression of M1 and M2 markers by realtime PCR.

Q: With COc1ccc2c(c1)CCn1c-2cc(Oc2ccc(Oc3cccc(C(F)(F)F)c3)c(C#N)c2)nc1=O [5-((9-Methoxy-4-oxo-6,7-dihydro-4H-pyrimido[6,1-a]isoquinolin-2-yl)oxy)-2-(3-(trifluoromethyl)phenoxy)benzonitrile] as the molecule, how does the “plasma Lp-PLA2 activity” value ([1]; rat EAE plasma) read?
A: decreased Lp-PLA2 activity

Q: And the “plasma LysoPC levels” value ([1]; rat EAE plasma)?
A: decreased

Q: And the “clinical disease (EAE)” value ([1]; rat EAE, MBP immunization, administered day 0 until day 22)?
A: reduction in clinical disease

Q: What about the M1 markers expression [2] of the same molecule?
A: decrease in M1 markers

Q: What about the M2 markers expression [2] of the same molecule?
A: increase in M2 markers
